Experimental data reported in patent publication US5945507A, “Antimicrobial peptides” (University of Pittsburgh, priority 1997, dated 1999).
Entries after “also recorded” stand apart in the source; their conditions may differ. Where two headings read alike, the source gives them in different places. Bridge positions count the residues as written; N and C are the ends. Ends that are not written are not given here. I, II: the chains in the order shown.

Legend:
[1] = system: S. aureus; format: cell-based, Staphylococcus aureus; conditions: for antibacterial activity (in words): S. aureus; for MBC50: in µM
Protocol: Bacterial lysis assay. Bacterial lysis assays were conducted in a manner similar to that described previously (Lehrer, R. I., M. E. Selsted, D. Szklarek, and F. J. 1983. Infect. Immun. 42:10-14, 1983; Miller, M. A., R. F. Garry, J. M. Jaynes, and R. C. Montelaro, AIDS Res Hum Retroviruses 7:511-519, 1991). Bacterial suspensions were cultured in Luria Broth to mid-log growth phase and washed by several cycles of centrifugation and resuspension in 10 mM phosphate buffer. The A600 of the suspension was adjusted with 10 mM phosphate buffer such that, upon dilution, 5-10×10^5 CFU/ml would be treated in the assay. Bacteria were incubated with two-fold dilutions of peptides (32-0.1 μM in 96-well plates in 10 mM phosphate buffer, pH 7.2, for 1 hour. Ten-fold dilutions were performed to a dilution of 1:1000; a 100-μl aliquot from each condition was plated on tryptic soy agar (Difco, Detroit, Mich.) and the plates were incubated overnight. Colonies of surviving bacteria (colony-forming units) were counted and compared to untreated controls to determine the amount of peptide-induced killing under each condition. Log killing is defined as the log of the ratio of CFUs present before and after treatment with peptide. Complete killing is indicated where there were zero colonies per 100-μl aliquot of undiluted bacteria-peptide mixture.
Calculation of MBC. […] The minimal bactericidal concentration, MBC, is the peptide concentration at which 99.9% (3 logs) killing is achieved (Pearson et al., Antimicrob. Agents Chemother. 18:699-708, 1980). The MBC50 is the peptide concentration at which 50% killing is achieved.

[2] = system: human red blood cells (RBC); format: cell-based; conditions: for % lysis at 100 μM: erythrocytes, 100 μM peptide; for hemolytic activity (in words): red blood cells; for hemolytic activity: red cells of human, 100 μM
Excerpt: Erythrocyte Lysis Assay. Peptides were screened for hemolytic activity by treating freshly isolated human red blood cells (RBC) with various concentrations of peptides, centrifuging the samples to pellet intact cells, and measuring the amount of hemoglobin in the supernatant to determine the extent of RBC lysis under each condition. The method used is essentially that described by Srinivas et al. (J. Biol. Chem. 267:7121-7127, 1992) with the following modifications: peptide concentrations of 0.1-100 μM were tested, the incubation period was 1 hour at 37° C., and the A570 was measured in duplicate wells of a 96-well plate. A calibration curve was constructed by treating various amounts of red blood cells (0, 20,40, 60, 80, and 100% of the volume of RBC used in test samples) with plain water, which completely lyses the cells. The standard curve was used to calculate the percent lysis at each peptide concentration.

[3] = system: S. aureus; experiment: Kinetics of bacterial killing, S. aureus; format: cell-based, Staphylococcus aureus; conditions: 10 μM peptide, FIG. 5
Protocol: Kinetics of Bacterial Killing. The time course of the cytolytic activity of a peptide was determined by a modification of the above procedure, where a volume of appropriately diluted bacteria was treated with 1-10 μM peptide; aliquots of this mixture were removed every 10 seconds and diluted 1:2 in 2× Luria Broth; each resulting suspension was subsequently plated on agar as described above. The number of colonies visible upon incubation for each time point was used to calculate a rate of killing by the peptide.

[4] = Table 4, peptide concentration (closest 2-fold dilution) reducing CFU/ml by 50%
[5] = Table 4, peptide concentration (closest 2-fold dilution) reducing CFU/ml by 99.9%, 1 hour
[6] = Table 7, substitution analogs, 50% reduction of CFU/ml
[7] = Table 7, substitution analogs, 99.9% reduction of CFU/ml
[8] = Table 6, truncated analogs, 50% reduction of CFU/ml
[9] = Table 6, truncated analogs, 99.9% reduction of CFU/ml

Substance | antibacterial activity (in words) [1] | MBC50 [1, 6] | MBC [1, 7] | % lysis at 100 μM ([2]; Table 7) | hemolytic activity (in words) [2] | also measured
LLSRVYQILQPILQRLSATLQRIREVLR [SLP2B, SIVMM239 790-817] | highly active |  |  |  |  | MBC50 [1, 4]: .25; MBC [1, 5]: 1 µM
RVIEVVQGACRAIEHIPRRIEQGLERIL [Analog 3, engineered analog of LLP1] | devoid of activity | > 80 | > 80 µM | < 5% | devoid of activity | 
FLIRQLIRLLTWLFSNCRTLLSRVY [SLP2A, SIVMM239 771-795] | highly active |  |  |  | rather hemolytic | MBC50 [1, 4]: 4; MBC [1, 5]: > 32 µM
RIAGYGLRGLAVIIRICIRGLNLIFEIIR [ELP, EIAV 808-836 (Wyoming)] | absence of measurable bactericidal activity; also recorded: little antibacterial activity |  |  |  | high hemolytic activity; also recorded: highly hemolytic | MBC50 [1, 4]: > 10; MBC [1, 5]: > 10 µM
RVIEVVQGACRAIRHIPRRIRQGLERIL [LLP1] |  |  |  |  | Below 10 μM very little lysis is observed | killing within one minute [3]: over 99.99%; % lysis at 100 μM ([2]; Table 8): 100%; hemolytic LD50 ([2]; text b508): 20 to 40 µM
RVIEVVQGACRAIRHIPRRIEQGLERIL [Peptide R848E, engineered analog of LLP1] | reducing both the antibacterial and hemolytic activity | 20 | 80 µM | 10% | reducing both the antibacterial and hemolytic activity | 
DLWETLRRGGRWILAIPRRIRQGLELTL [SLP1] |  |  |  |  |  | MBC50 [1, 4]: 8; MBC [1, 5]: > 16 µM
RVIEVVQGACRAIRHIPRRIRGQLERIL [LLP1-Am, LLP1 with chemically modified cysteine] |  |  |  |  |  | MBC50 ([1]; Table 8, cysteine substitution analogs, 50% reduction of CFU/ml): 5; MBC ([1]; Table 8, cysteine substitution analogs, 99.9% reduction of CFU/ml): 20 µM; % lysis at 100 μM ([2]; Table 8): 15%
RVIEVVQGACRASRHIPRRIRQGLERIL [Peptide I840S, engineered analog of LLP1] | reduces antibacterial activity | 2.5 | 10 to 20 µM | < 10% | significantly reduced | 
I: RVIEVVQGACRAIRHIPRRIRQGLERIL / II: RVIEVVQGACRAIRHIPRRIRQGLERIL (disulfide I:10-II:10) [bis-LLP1] |  |  |  |  |  | % lysis at 100 μM ([2]; Table 8): 100%
YHRLRDLLLIVTRIVELLGRR [LLP2, HIVHXB2R 768-788] | highly active |  |  |  |  | MBC50 [1, 4]: 1; MBC [1, 5]: 4 µM
GACRAIRHIPRRIR [LP14] | high level of antibacterial activity |  |  |  | virtually no hemolytic activity | MBC50 [1, 8]: 2.5; MBC [1, 9]: 10 µM; hemolytic activity [2]: less than 10%
FLIRQLIELLTWLFSNCRTLLSEVY [SLP2A1, engineered analog of SLP2A] |  | > 32 | > 32 µM | 7% |  | 
RVIEVVQGACRAIRHIPRRSRQGLERIL [Peptide I847S, engineered analog of LLP1] | reduces antibacterial activity | 5 | 20 µM | < 10% | significantly reduced | 
RVIEVVQGACRAIRHIPRRIR [LP21] | high level of antibacterial activity |  |  |  | virtually no hemolytic activity | MBC50 [1, 8]: 2.5; MBC [1, 9]: 10 µM; hemolytic activity [2]: less than 10%
RVIEVVQGACRAIEHIPRRIRQGLERIL [Peptide R841E, engineered analog of LLP1] | reducing both the antibacterial and hemolytic activity | 10-20 | 40 to 80 µM | 30% | reducing both the antibacterial and hemolytic activity | 
RVIRVVQGACRAIRHIPRRIRQGLRRIL [Analog 5, engineered analog of LLP1] | very high antibacterial and hemolytic activity | 0.3 | 2.5 µM | 100% | very high antibacterial and hemolytic activity | 
LLSEVYQILQPILQELSATLQRIREVLR [SLP2B1, engineered analog of SLP2B] |  | > 32 | > 32 µM | 10% |  | 
VVQGACRAIRHIPRRIR [LP17] | high level of antibacterial activity |  |  |  | virtually no hemolytic activity | MBC50 [1, 8]: 5; MBC [1, 9]: 20 µM; hemolytic activity [2]: less than 10%
